Data as given in ChEMBL document CHEMBL1201862, “PubChem BioAssay data set” (2004).
Active and inactive are the calls of the source.

Columns and labels:
[1] = target: Cystic fibrosis transmembrane conductance regulator/Golgi-associated PDZ and coiled-coil motif-containing protein (Homo sapiens, UniProt P13569+Q9HD26); assay: potency against CAL PDZ-peptide interaction – biochemical, fluorescence polarization, Cerulean-tagged CAL PDZ, cherry-picks, dose response (AID 504773)
[2] = target: T1, Tyrosine-protein phosphatase non-receptor type 12 (Homo sapiens, UniProt Q05209); assay: SAR Selectivity Analysis of small molecule inhibitors of PEST using pCAP in a fluorescence assay. [Related pubchem assays (depositor defined):AID1779, AID1784, AID2135]; type: functional
T1 sequence (Q05209 whole entry): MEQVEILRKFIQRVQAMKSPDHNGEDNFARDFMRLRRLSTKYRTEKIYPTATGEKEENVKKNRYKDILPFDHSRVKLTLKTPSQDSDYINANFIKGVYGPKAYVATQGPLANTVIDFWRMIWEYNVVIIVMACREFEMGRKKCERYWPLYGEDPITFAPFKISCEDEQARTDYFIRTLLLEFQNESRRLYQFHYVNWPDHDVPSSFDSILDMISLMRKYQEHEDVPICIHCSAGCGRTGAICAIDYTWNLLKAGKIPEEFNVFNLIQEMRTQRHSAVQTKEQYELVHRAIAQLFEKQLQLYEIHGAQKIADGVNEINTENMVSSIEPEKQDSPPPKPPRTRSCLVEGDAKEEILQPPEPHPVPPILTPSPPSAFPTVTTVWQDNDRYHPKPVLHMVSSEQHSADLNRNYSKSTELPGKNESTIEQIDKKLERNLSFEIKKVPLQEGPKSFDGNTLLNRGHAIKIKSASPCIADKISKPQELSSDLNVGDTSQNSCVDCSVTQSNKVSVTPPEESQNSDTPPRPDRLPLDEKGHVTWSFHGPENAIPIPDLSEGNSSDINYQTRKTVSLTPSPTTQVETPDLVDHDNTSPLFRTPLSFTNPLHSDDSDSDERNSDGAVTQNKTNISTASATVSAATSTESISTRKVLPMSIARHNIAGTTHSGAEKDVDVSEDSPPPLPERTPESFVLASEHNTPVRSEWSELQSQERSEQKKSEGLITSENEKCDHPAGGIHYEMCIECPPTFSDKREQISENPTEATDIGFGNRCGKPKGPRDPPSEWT

[3] = target: T2, Dual specificity protein phosphatase 3 (Homo sapiens, UniProt P51452); assay: SAR VHR1 Fluorescent Assay for In Vitro dose response studies. [Related pubchem assays (depositor defined):AID1654, AID1661, AID1878, AID1992, AID2004, AID2070, AID2085]; type: functional
[4] = target: T3, Tyrosine-protein phosphatase non-receptor type 22 (Homo sapiens, UniProt Q9Y2R2); assay: SAR LYP1 Fluorescent Assay using OMFP substrate for In Vitro dose response studies - Set 3. [Related pubchem assays (depositor defined):AID1779, AID1784, AID2140, AID2686]; type: functional
T3 sequence (Q9Y2R2 whole entry): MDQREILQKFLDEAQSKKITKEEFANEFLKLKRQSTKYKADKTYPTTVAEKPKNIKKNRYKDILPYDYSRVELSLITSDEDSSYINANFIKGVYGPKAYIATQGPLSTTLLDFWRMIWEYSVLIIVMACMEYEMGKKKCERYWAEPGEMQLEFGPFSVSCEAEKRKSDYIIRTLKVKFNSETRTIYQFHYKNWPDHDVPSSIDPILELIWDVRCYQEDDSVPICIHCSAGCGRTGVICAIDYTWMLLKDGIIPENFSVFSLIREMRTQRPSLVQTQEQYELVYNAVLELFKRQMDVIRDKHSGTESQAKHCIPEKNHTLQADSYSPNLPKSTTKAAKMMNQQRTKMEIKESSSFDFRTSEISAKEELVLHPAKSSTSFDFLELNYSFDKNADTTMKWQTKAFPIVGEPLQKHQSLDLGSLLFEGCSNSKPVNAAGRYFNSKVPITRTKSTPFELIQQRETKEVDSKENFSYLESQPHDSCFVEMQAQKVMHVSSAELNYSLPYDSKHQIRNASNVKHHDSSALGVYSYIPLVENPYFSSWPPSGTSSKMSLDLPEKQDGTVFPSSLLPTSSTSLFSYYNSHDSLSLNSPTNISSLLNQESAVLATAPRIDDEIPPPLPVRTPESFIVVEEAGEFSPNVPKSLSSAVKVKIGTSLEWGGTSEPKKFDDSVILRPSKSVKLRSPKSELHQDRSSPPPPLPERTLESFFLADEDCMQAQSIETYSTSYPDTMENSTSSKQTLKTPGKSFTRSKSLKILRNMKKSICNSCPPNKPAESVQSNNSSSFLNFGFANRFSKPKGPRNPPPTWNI

[5] = target: T2, Dual specificity protein phosphatase 3; assay: MOA VHR1 Fluorescent secondary assay for identification of redox-state modulating compounds. [Related pubchem assays (depositor defined):AID1654, AID1661, AID1878, AID1957]
[6] = target: T4, Tyrosine-protein phosphatase non-receptor type 7 (Homo sapiens, UniProt P35236); assay: redox-active compounds inhibiting HePTP phosphatase – biochemical, fluorescence, mechanism study (AID 2068); type: functional
T4 sequence (P35236 whole entry): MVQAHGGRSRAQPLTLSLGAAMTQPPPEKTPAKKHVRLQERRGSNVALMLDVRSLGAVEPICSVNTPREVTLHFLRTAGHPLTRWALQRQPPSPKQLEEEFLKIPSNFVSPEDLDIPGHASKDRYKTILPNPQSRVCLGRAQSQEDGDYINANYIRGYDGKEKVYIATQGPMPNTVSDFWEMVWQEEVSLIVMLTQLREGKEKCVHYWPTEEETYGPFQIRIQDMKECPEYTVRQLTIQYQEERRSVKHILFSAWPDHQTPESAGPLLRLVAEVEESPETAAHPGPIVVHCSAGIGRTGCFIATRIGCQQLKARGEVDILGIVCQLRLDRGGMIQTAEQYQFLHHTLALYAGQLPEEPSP

[7] = target: T4, Tyrosine-protein phosphatase non-receptor type 7; assay: inhibition of hematopoietic tyrosine phosphatase HePTP – biochemical, set 2, SAR follow-up (AID 449736); type: functional
[8] = target: T2, Dual specificity protein phosphatase 3; assay: SAR VHR1 Fluorescent Assay for In Vitro dose response studies Set 2. [Related pubchem assays (depositor defined):AID1654, AID1661, AID1878]; type: functional
[9] = target: T5, Dual specificity protein phosphatase 6 (Rattus norvegicus, UniProt Q64346); type: functional;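 also: confirmatory in vitro dose-response testing of MKP-3 inhibition; recombinant His-tagged MKP-3 made in E. coli BL21 with OMFP substrate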
T5 sequence (Q64346 whole entry): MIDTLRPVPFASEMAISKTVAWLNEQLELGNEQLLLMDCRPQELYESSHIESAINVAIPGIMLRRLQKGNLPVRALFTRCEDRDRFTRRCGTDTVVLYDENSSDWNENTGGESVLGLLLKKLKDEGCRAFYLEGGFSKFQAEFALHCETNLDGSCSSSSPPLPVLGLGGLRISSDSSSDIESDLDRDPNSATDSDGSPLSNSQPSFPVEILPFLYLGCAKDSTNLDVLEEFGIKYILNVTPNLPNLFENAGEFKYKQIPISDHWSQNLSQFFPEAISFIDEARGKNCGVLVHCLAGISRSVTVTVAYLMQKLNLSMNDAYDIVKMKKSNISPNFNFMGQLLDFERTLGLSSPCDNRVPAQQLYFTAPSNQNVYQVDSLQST

HeLa = assay: viability loss in HeLa cells – cell-based, 24 h, cherry-picked samples, cytotoxicity control, dose response (AID 504726); type: functional; conditions: Homo sapiens;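 also: potency for cytotoxicity as loss of luminescence signal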
Trypsin = Trypsin (Sus scrofa, UniProt P00761); assay: trypsin protease activity blockade – biochemical, quenched peptide fluorescence, cherry-pick, selectivity assay for Rce1 protease inhibitor project, dose response (AID 488789)
CAAX prenyl protease 2 = target: T6, CAAX prenyl protease 2 (Homo sapiens, UniProt Q9Y256); assay: inhibition of Ras-converting CAAX protease Rce1 – biochemical, yeast membranes, quenched-peptide fluorescence, cherry-pick, dose response (AID 588849)
T6 sequence (Q9Y256 whole entry): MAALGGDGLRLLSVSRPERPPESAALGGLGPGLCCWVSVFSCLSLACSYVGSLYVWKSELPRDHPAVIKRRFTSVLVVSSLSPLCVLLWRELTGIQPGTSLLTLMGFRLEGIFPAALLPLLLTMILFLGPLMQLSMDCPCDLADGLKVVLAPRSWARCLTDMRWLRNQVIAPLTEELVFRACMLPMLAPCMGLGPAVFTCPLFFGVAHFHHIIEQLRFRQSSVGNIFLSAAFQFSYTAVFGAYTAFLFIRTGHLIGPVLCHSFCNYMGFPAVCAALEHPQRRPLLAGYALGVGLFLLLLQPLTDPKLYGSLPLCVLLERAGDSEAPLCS

T2 sequence (P51452 whole entry): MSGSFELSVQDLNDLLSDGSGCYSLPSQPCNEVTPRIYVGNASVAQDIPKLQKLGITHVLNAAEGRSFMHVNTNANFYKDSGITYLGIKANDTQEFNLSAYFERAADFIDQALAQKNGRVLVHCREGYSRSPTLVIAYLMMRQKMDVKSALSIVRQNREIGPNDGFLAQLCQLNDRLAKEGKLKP
Chain of Trypsin (P00761 whole entry): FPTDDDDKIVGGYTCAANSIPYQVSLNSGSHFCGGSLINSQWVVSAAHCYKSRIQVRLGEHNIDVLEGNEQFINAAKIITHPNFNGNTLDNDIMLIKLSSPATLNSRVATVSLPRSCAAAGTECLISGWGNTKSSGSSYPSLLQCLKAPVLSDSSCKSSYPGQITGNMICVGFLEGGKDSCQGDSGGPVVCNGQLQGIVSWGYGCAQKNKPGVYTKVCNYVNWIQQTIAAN
Chain of Cystic fibrosis transmembrane conductance regulator/Golgi-associated PDZ and coiled-coil motif-containing protein (P13569 whole entry, other chains not shown): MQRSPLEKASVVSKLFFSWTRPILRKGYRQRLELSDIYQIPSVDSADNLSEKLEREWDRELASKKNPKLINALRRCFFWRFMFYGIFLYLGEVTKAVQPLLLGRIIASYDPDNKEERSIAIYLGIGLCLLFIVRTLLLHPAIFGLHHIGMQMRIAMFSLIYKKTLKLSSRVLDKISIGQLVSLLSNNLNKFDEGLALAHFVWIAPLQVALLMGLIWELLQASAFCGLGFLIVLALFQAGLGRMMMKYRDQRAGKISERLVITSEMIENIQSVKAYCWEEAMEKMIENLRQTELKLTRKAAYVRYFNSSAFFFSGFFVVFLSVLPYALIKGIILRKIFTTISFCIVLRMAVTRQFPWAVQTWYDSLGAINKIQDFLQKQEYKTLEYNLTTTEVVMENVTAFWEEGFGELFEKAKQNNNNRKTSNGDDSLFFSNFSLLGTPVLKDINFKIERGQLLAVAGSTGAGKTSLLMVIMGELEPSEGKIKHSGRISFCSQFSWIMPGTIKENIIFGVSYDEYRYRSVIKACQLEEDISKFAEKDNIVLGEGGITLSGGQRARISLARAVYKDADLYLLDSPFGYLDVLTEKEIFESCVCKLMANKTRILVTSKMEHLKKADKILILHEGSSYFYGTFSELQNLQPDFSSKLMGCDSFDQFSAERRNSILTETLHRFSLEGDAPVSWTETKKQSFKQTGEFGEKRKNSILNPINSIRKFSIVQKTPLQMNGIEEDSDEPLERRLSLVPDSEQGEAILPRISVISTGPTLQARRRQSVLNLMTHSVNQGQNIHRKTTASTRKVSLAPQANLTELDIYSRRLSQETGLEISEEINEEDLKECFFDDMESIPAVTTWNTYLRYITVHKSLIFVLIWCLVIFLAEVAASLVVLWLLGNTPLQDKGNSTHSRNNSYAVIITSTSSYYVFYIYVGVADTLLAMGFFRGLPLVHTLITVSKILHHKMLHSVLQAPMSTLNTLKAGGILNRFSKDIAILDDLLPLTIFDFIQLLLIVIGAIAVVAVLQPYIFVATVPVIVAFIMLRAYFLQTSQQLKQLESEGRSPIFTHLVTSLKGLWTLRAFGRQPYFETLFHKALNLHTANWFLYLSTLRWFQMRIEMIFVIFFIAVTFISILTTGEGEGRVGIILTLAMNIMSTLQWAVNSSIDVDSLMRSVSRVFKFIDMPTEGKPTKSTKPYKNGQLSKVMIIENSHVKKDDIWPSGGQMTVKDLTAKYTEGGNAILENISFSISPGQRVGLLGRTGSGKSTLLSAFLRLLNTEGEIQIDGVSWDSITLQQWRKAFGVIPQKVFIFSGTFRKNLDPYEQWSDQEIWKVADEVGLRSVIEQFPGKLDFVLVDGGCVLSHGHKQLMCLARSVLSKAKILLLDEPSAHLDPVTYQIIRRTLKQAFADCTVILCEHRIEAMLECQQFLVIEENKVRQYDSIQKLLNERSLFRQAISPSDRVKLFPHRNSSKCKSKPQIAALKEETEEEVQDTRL

OC(c1ccccc1)(c1ccccc1)c1nccc2ccccc12
active: AC50 [1] 44.9 µM

CCOC(=O)C1=C(C)N=c2s/c(=C/c3cc(Cl)c(OCC(=O)O)c(OC)c3)c(=O)n2C1c1ccccc1Cl (configuration not stated)
active: IC50 [2] 7.63 µM | IC50 [3] 15.1 µM | IC50 [4] 30.5 µM | IC50 [5] 3.07 µM | IC50 [6] 1.65 µM | IC50 [7] 1.72 µM | IC50 [8] 41.1 µM | IC50 [9] 39.5 µM

COc1cccc2[nH]c(C(=O)NC(C)c3ccccc3)cc12 (configuration not stated)
active: AC50 (HeLa) 182 µM | AC50 (Trypsin) 11.2 µM | AC50 (CAAX prenyl protease 2) 12.1 µM
